Results on six compounds are retold here after patent publication US20240408093A1, “HETEROBIFUNCTIONAL COMPOUNDS AND THEIR USE IN TREATING DISEASE” (HALDA THERAPEUTICS OPCO, INC., priority 2022, published 2024).

For orientation: IC50 means the concentration needed to halve the response being measured. As a reminder, the GI50 is the concentration giving 50% growth inhibition. Broadly, the DC50 is the midpoint of the concentration-degradation curve.

Test [1] has as its target T1, BTK (Homo sapiens, UniProt Q06187).
T1 construct: BTK (amino acids 387-659)
The experiment in a line: Release of effector protein ligand from heterobifunctional compounds, BTK. In kind it is biochemical. As to conditions: detected A1-3. The procedure: Exemplary heterobifunctional compounds were evaluated for the ability to release an effector protein ligand in the presence of KRAS G12C, BTK, or EGFR T790M L858R target proteins.
Samples for mass spectrometry for KRAS G12C, BTK, and EGFR T790M L858R were prepared as described above for the intact mass spectrometry target engagement experiment, respectively, except rather than flash-freezing, 20 μL of sample was quenched with 50 μL of 100% acetonitrile. As well, a buffer-only control was used to detect latent release of effector protein ligand analyte. Internal standard (IS) solution consisted of 200 ng/mL propranolol and 50 ng/mL diclofenac in methanol:water 1:1 (v/v). A 4-point calibration curve (calibration standard (CS)) consisting of each analyte was made at final concentrations of 3 nM, 30 nM, 300 nM, and 3000 nM. Unknown samples were diluted such that the unknown analyte concentration was in the linear range of the calibration curve.
Samples for all proteins were prepared and analyzed from the following:
Samples were further analyzed with AB Sciex Triple Quad 5500 system coupled with Shimadzu Prominence HPLC.

For test [2], the target named is KRAS G12C (Homo sapiens, UniProt P01116, G12C). Put plainly: KRAS G12C nucleotide exchange assay (SOS1-mediated, HTRF). Format: biochemical. Details: GST-tagged KRAS G12C (amino acids 2-169). As to conditions: 1 hr pre-incubation. The procedure: KRAS target engagement (IC50 determination) was performed using a KRAS G12C nucleotide exchange assay. Specifically, compounds were tested against KRAS G12C in 10-point concentration IC50 mode with 3-fold serial dilution at a starting concentration of 10 μM. ARS1620 was used as a control.
Briefly, GST-tagged KRAS G12C (amino acids 2-169) was mixed with anti-GST Tb antibody (1.5× solution) and 10 μL was delivered to reaction wells. Compounds were delivered using an acoustic dispenser (Echo, Labcyte) and pre-incubated with protein for 1 hr at RT. KRAS/anti-GST Tb Ab/compound mixture was incubated for 1 hour at room temperature. A 3× solution of SOS1 (amino acids 564-1049) and GTP-DY-647P1 (GTP*) was prepared in reaction buffer. A 5 μL aliquot of SOS1/GTP* solution was added to reaction wells to initiate the exchange reaction. No-SOS1 reaction or max compound concentration was used as blank. The final concentrations of KRAS G12C, SOS1, and GTP* were 30 nM, 20 nM, and 0.15 μM, respectively. SOS1 mediated exchange of GDP to GTP-DY-647P was measured using HTRF (Ex/Em=(320-75/665-7.5; 615-8.5)) using an Envision Plate Reader (Perkin Elmer). IC50 determination was performed using a Sigmoidal dose response (variable slope) equation.
A general note: TR-FRET usually uses a lanthanide donor and a delayed reading to cut background.

Test [3] relates to HeLa cells (ATCC CCL-2). The experiment in a line: Cellular growth inhibition assay, HeLa cells (Example 16). As to conditions: Homo sapiens, 72 hours, CellTiter-Glo 2.0. Format: cell-based. On the procedure: (§1) Exemplary compounds were tested for ability to inhibit the proliferation of HEK293 cells (ATCC CRL-1573) and HeLa cells (ATCC CCL-2).
(§2) HEK293 and HeLa cells were cultured in DMEM (Gibco 11995), supplemented with 10% Heat-inactivated FBS (Gibco A38400-01) and 1% Penicillin/Streptomycin (Gibco 15140-122) at 37° C. with 5% CO2 in a humidified tissue culture incubator. Cells were seeded at 500 cells/well in 384-well, Poly-D-lysine-treated blackplates (Perkin Elmer 6007710) in 25 μL media lacking selection for 18-24 hours. Plates were spun at 300 g for 30 seconds and stored in the incubator overnight. After 24 hours, a 25 μL aliquot of compound-containing medium was added in each well, at a final top concentration of 10 μM test compound, with 3-fold dilutions, using DMSO alone as a negative control. Plates were then spun at 300×g for 3 minutes again and cultured at 37° C. with 5% CO2. After 72 hours, cell viability was quantified with CellTiter-Glo 2.0 (Promega). After equilibrating cell plates at room temperature for 30 minutes, 25 μL CellTiter-Glo 2.0 reagent was dispensed into each well. Plates were mixed on a shaker for 2 minutes at 500 rpm, followed by a 10-minute incubation at room temperature. Luminescence readings were measured with an EnVision Plate Reader (Perkin Elmer). Data was normalized to DMSO treated cell wells. A four-parameter non-linear regression curve fit was applied to dose-response data in Prism to determine the half maximal growth inhibitory concentration (GI50) of each compound.

The target in test [4] is T2, GSPT1 (Homo sapiens, UniProt P15170+Q96SW2).
T2 construct: host or cells: HEK293 LgBiT / GSPT1 HiBiT CRISPR knock-in
The experiment in a line: GSPT1 HiBiT degradation assay. Format: cell-based. As to conditions: HEK293 LgBiT GSPT1 HiBiT cells, 6 hours. From the text:
Promega developed a HEK293 cell line that constitutively expresses LgBiT protein and GSPT1_HiBiT fusion protein. When both proteins are present, the HiBiT portion of the fusion protein combines with LgBiT protein to form a functional luciferase enzyme. Endurazine, a cell permeable small molecule, is converted by cellular esterases into furimazine, which the luciferase enzyme uses as a substrate to generate luminescence. When GSPT1 is degraded, the HiBit is also degraded. This prevents formation of fully functional luciferase, leading to a loss in luminescence. GSPT1 degradation therefore correlates with a decrease in luminescence and can be measured continuously over time. The concentration of compound at which 50% GSPT1 degradation occurs (DC50) may be calculated using this system.
HEK293 LgBiTGSPT1 HiBiT CRISPR Knock-in cells were cultured in DMEM Media supplemented with 10% Heat-inactivated FBS, 1% Penicillin/Streptomycin, 200 μg/mL hygromycin and stored in a humidified incubator set at 37° C. and 5% CO2. 18-24 hours prior to compound treatment, cells were seeded at 1000 cells/well in a 384-well tissue culture-treated white plates in 25 μL media lacking selection for 18-24 hours. The plates were spun at 300 g for 30 seconds and stored in the incubator overnight. After 24 hours, compounds are titrated in DMSO and added to media supplemented with endurazine substrate. A 25 μL aliquot of 2× compound/endurazine in media is then added to the 384-well microplate with seeded cells. (Endurazine is used at a final concentration of 0.5×). The plate was spun at 300 g for 30 seconds and stored in the incubator. After 6 hours, the plate was read on a Perkin Elmer MultiMode Plate Reader Envision 2105 to measure luminescence signal. Data were plotted in Prism (Graphpad) and the concentration of compound at which 50% GSPT1 degradation occurs (DC50) was calculated.
A general note: With HiBiT, luminescence reflects the tagged protein that the partner subunit can reach.

Test [5] concerns HEK293 cells (ATCC CRL-1573). Put plainly: Cellular growth inhibition assay, HEK293 cells (Example 16). In kind it is cell-based. As to conditions: Homo sapiens, 72 hours, CellTiter-Glo 2.0. On the procedure: as §1, §2
(ATP-based viability assays read luminescence as a measure of living cells.)

For test [6], the system named is GSPT1. The experiment in a line: Payload release assay (DC50 readout), GSPT1 degradation in the presence of recombinant target protein. As to conditions: I-series compounds (GSPT1 readout inferred). Format: cell-based. The procedure:
Exemplary compounds were tested for ability to cause degradation of CCNK or GSPT1 in the presence of recombinant target protein.
HEK293 LgBiT/GSPT1 HiBiT CRISPR Knock-in cells (Promega) were cultured in DMEM (Gibco 11995), supplemented with 10% Heat-inactivated FBS (Gibco A38400-01) and 1% Penicillin/Streptomycin (Gibco 15140-122) and 200 Vg/ml Hygromycin B (Gibco 10-687-010) at 37° C. with 5% CO2 in a humidified tissue culture incubator. HEK293 LgBiT/CCNK HiBiT cells (in-house, described above) were cultured in DMEM (Gibco 11995), supplemented with 10% Heat-inactivated FBS (Gibco A38400-01) and 1% Penicillin/Streptomycin (Gibco 15140-122) 200 Vg/ml Hygromycin B (Gibco 10-687-010), and 1 Vg/ml Puromycin Dihydrochloride (Thermo A1113803) at 37° C. with 5% CO2 in a humidified tissue culture incubator. Cells were seeded (1000 cells/well for HEK293 LgBiT/GSPT1 HiBiT cells or 3000 cells/well for HEK293 LgBiT/CCNK HiBiT cells) 384-well, tissue culture-treated white plates (Perkin Elmer 6007680) in 10 μL media lacking selection for 18-24 hours. Plates were spun at 300 g for 30 seconds and stored in the incubator overnight. After 24 hours, a 5 μL aliquot of recombinant target protein (final concentration of either 5 μM KRAS amino acids 1-169, C51S, C80L, C118S, G12C or 3 μM EGFR amino acids 696-1022 or 3 μM EGFR amino acids 696-1022, T790M, L858R) was added to wells, followed immediately by a 5 μL aliquot of 4× compound-containing medium supplemented with Endurazine Substrate (Promega N2570) was added in each well, at a final top concentration of 10 μM test compound and 0.5× Endurazine, with 4-fold dilutions, using DMSO alone as a negative control. Plates were then spun at 300×g for 3 minutes again and cultured at 37° C. with 5% CO2. After 6 hours the plate was read on Envision MultiMode Plate Reader 2105 (Perkin Elmer) to measure luminescence signal. Data was normalized to DMSO treated cell wells. A four-parameter non-linear regression curve fit was applied to dose-response data in Prism to determine the half maximal growth inhibitory concentration (GI50) of each compound.

[7] abbreviates: 0 μM recombinant KRAS G12C, read-out: DC50 at 0 μM KRAS G12C.
Setting [8] is: 5 μM recombinant KRAS G12C, read-out: DC50 at 5 μM KRAS G12C.

Like-named read-outs stand apart in the source and are kept apart here.

T2 sequence (P15170 whole entry): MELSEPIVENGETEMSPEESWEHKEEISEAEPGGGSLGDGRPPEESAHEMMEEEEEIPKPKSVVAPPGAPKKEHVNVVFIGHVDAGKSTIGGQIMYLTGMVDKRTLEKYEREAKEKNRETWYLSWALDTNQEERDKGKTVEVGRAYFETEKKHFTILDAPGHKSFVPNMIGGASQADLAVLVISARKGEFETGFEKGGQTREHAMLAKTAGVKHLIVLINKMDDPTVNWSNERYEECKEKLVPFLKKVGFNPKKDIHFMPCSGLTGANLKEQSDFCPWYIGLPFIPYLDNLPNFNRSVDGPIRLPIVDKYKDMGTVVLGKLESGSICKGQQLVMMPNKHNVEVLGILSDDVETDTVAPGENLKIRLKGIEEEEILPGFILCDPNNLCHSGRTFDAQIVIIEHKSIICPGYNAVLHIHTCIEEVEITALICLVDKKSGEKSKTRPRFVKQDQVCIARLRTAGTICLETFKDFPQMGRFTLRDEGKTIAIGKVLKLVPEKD
T2 sequence (Q96SW2 whole entry): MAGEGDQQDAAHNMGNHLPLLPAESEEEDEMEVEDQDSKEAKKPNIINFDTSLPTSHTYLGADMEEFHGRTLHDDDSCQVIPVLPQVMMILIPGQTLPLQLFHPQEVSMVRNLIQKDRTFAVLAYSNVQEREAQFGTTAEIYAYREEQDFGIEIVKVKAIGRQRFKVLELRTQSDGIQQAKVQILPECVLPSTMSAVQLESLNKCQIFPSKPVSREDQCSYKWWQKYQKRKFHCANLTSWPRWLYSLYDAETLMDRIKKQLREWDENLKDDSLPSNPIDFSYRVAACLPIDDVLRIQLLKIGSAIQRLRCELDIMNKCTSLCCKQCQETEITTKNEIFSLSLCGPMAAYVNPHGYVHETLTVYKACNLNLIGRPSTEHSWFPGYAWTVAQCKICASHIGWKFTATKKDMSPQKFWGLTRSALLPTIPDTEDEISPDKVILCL
T2 sequence (Q16531 whole entry partner): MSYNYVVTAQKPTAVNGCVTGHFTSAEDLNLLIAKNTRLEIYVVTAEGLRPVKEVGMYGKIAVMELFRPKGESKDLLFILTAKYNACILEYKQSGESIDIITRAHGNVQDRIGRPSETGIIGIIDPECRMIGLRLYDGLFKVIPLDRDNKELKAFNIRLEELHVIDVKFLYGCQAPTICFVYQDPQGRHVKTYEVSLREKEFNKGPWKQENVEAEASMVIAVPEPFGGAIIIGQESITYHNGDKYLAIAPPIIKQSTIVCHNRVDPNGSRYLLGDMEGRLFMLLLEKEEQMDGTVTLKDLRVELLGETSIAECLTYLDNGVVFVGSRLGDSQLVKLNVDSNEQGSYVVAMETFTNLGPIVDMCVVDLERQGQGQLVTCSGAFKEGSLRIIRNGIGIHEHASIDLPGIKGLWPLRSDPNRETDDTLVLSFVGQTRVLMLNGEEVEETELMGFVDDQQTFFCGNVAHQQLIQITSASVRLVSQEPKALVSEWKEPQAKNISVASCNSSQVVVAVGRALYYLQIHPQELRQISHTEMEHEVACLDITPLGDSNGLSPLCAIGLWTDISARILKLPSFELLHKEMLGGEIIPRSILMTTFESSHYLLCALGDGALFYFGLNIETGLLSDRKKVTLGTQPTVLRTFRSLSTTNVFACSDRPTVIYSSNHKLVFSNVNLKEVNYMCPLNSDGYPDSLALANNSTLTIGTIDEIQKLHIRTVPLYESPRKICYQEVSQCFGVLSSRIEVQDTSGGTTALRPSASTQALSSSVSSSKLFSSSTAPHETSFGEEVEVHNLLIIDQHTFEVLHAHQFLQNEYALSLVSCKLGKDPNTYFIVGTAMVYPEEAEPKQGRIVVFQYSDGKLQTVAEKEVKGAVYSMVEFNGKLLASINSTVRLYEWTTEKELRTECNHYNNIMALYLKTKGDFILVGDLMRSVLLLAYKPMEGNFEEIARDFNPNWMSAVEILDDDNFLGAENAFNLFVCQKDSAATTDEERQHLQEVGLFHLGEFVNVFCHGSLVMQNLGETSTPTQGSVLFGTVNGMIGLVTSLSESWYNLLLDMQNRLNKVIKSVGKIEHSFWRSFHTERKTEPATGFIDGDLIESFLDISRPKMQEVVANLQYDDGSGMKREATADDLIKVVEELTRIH
T1 sequence (Q06187 387-659): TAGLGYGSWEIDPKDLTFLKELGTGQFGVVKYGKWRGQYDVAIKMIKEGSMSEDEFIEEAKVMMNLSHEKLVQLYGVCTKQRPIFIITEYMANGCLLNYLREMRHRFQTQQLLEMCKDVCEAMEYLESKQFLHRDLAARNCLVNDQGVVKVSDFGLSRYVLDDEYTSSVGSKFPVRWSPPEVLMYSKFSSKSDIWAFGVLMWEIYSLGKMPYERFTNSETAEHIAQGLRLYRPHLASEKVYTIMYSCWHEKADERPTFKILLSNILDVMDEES
Chain of KRAS G12C (P01116 2-169 isoform P01116-2 G12C): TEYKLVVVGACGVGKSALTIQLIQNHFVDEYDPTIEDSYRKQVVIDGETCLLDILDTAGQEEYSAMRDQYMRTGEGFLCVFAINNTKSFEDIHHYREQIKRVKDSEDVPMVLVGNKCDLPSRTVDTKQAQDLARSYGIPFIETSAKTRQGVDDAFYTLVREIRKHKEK

Consider `C=C(Cn1cc(CNc2cc(N3CCCC[C@H]3CCO)nc3c(CC)cnn23)ccc1=O)C(=O)N(C)CCOc1c(N)ncnc1-c1cc(F)cc(NC(=O)c2ccc(C3CC3)cc2F)c1C` [Compound A1-5], for which the “Concentration of Effector Protein Ligand” value in test [1] (Matrix Buffer + Protein (BTK), Time 0 h) turned out to be 51.8 nM; in test [1] (Matrix Buffer + Protein (BTK), Time 1 h), 72.3 nM; in test [1] (Matrix Buffer + Protein (BTK), Time 4 h), 118 nM; in test [1] (Matrix Buffer + Protein (BTK), Time 22 h), 164 nM; in test [1] (Matrix Buffer, Time 0 h) it was 44.9 nM; in test [1] (Matrix Buffer, Time 1 h) it was 49 nM. Besides, the “Concentration of Effector Protein Ligand” value in test [1] (Matrix Buffer, Time 4 h) came out at 52.4 nM; in test [1] (Matrix Buffer, Time 22 h), 80.5 nM.
As to `C=C(COc1cc(Cl)cc(NC(=O)NCc2ccc3c(c2)CN(C2CCC(=O)NC2=O)C3=O)c1)C(=O)N1CCN(c2ncnc3c(F)c(-c4c(O)cccc4F)c(Cl)cc23)CC1` (stereo not drawn) [Compound I-43], in test [2], the IC50 was greater than 10000 nM. Also, the GI50 in test [3] was 500 to 1500 nM; in test [5] it was less than 500 nM. Moreover, the DC50 in test [4] is 50 to 500 nM.
`C=C(COc1cc(Cl)cc(NC(=O)NCc2ccc3c(c2)CN(C2CCC(=O)NC2=O)C3=O)c1)C(=O)N1CC(n2c(=O)c3cc(-c4cc(O)cc5ccccc45)ccc3n2C)C1` (stereo not drawn) [Compound I-57]: in test [2], the IC50 is greater than 10000 nM. Further, the values for the GI50 in test [3] and in test [5] were 1500 to 10000 nM and less than 500 nM, respectively. Moreover, the DC50 is 50 to 500 nM in test [4], less than 250 nM in test [6] (setting [7]) and less than 250 nM in test [6] (setting [8]).
`C=C(COc1cc(C(F)(F)C(=O)NCc2ccc3c(c2)CN(C2CCC(=O)NC2=O)C3=O)ccc1Cl)C(=O)N1CCN(c2nc(OC[C@@H]3CCCN3C)nc3c2CCN(c2cccc4cccc(Cl)c24)C3)C[C@@H]1CC#N` (stereo partly drawn) [Compound I-81] yielded an IC50 in test [2] of less than 100 nM. For the same compound, the DC50 in test [4] was 50 to 500 nM; in test [6] (setting [7]), 250 to 5000 nM; in test [6] (setting [8]) it was greater than 10000 nM. In test [5], this compound yielded a GI50 of 1500 to 10000 nM.
The corresponding values for `C=C(COc1cc([N+](=O)[O-])c(Cl)cc1NC(=O)NCc1ccc2c(c1)CN(C1CCC(=O)NC1=O)C2=O)C(=O)N1CCN(c2nc(OC[C@@H]3CCCN3C)nc3c2CCN(c2cccc4cccc(Cl)c24)C3)C[C@@H]1CC#N` (stereo partly drawn) [Compound I-82] are 100 to 5000 nM, greater than 2500 nM, greater than 10000 nM, 5000 to 10000 nM and greater than 10000 nM.
In test [2], `C=C(CN1C(=O)CCC(N2Cc3cc(CNC(=O)Nc4cccc(Cl)c4O)ccc3C2=O)C1=O)C(=O)N1CCN(c2nc(OC[C@@H]3CCCN3C)nc3c2CCN(c2cccc4cccc(Cl)c24)C3)C[C@@H]1CC#N` (stereo partly drawn) [Compound I-83] had an IC50 of 100 to 5000 nM. For the same compound, the DC50 in test [4] was 500 to 2500 nM; in test [6] (setting [7]) it was 250 to 5000 nM; in test [6] (setting [8]), greater than 10000 nM. This compound also came in with a GI50 in test [5] of 1500 to 10000 nM.
